Data as given in US8124793B2, “Derivatives of ethylene methanedisulfonate as cancer chemotherapeutic agents” (priority 2007, dated 2012).

Experiments:
Assay type in all cases: cell-based
HCT-15 = experiment: NCI screen, growth of human tumor cells: Colon Cancer HCT-15; details: HCT-15 (Colon Cancer), 10^−4 molar
Procedure: (§1) In the NCI screening process, each compound was tested and described by a minimum of 60 data points. The test data include, but are not limited to the type of cancer, the molar concentration used in the screen, and the percent growth of the cancer. In some cases, NMR and elemental analysis were used for structural assignment.

SF-539 = experiment: NCI screen, growth of human tumor cells: CNS Cancer SF-539; details: for percent of growth of human tumor cells: SF-539 (CNS Cancer), 10^−4 molar
Procedure: as §1

NCI-H522 = experiment: NCI screen, growth of human tumor cells: Non-Small Cell Lung NCI-H522; details: NCI-H522 (Non-Small Cell Lung), 10^−4 molar
Procedure: as §1

human cancer cells = experiment: NCI screen summary over the cancers tested (negative growth of human cancer cells); details: 10^−4 M conc.; cancers with negative growth / cancers tested
Procedure: as §1
The derivatives in the tables are grouped using the same category as in the tables 1-6.

MOLT-4 = experiment: NCI screen, growth of human tumor cells: Leukemia MOLT-4; details: for percent of growth of human tumor cells: MOLT-4 (Leukemia), 10^−4 molar
Procedure: as §1

SF-295 = experiment: NCI screen, growth of human tumor cells: CNS Cancer SF-295; details: SF-295 (CNS Cancer), 10^−4 molar
Procedure: as §1

NCI-H460 = experiment: NCI screen, growth of human tumor cells: Non-Small Cell Lung NCI-H460; details: NCI-H460 (Non-Small Cell Lung), 10^−4 molar
Procedure: as §1

K562 = experiment: NCI screen, growth of human tumor cells: Leukemia K562
Procedure: as §1

SR = experiment: NCI screen, growth of human tumor cells: Leukemia SR; details: SR
Procedure: as §1

ACHN = experiment: NCI screen, growth of human tumor cells: Renal Cancer ACHN; details: ACHN (Renal Cancer), 10^−4 molar
Procedure: as §1

CCRF-CEM = experiment: NCI screen, growth of human tumor cells: Leukemia CCRF-CEM; details: for % Growth: CCRF-CEM; for percent of growth of human tumor cells: CCRF-CEM (Leukemia)
Procedure: as §1

SK-MEL-5 = experiment: NCI screen, growth of human tumor cells: Melanoma SK-MEL-5; details: SK-MEL-5, 10^−4 molar
Procedure: as §1

SNB-75 = experiment: NCI screen, growth of human tumor cells: CNS Cancer SNB-75; details: SNB-75 (CNS Cancer), 10^−4 molar
Procedure: as §1

RPMI-8226 = experiment: NCI screen, growth of human tumor cells: Leukemia RPMI-8226; details: RPMI-8226 (Leukemia), 10^−4 molar
Procedure: as §1

UACC-62 = experiment: NCI screen, growth of human tumor cells: Melanoma UACC-62; details: UACC-62 (Melanoma), 10^−4 molar
Procedure: as §1

CAKI-1 = experiment: NCI screen, growth of human tumor cells: Renal Cancer CAKI-1; details: CAKI-1 (Renal Cancer), 10^−4 molar
Procedure: as §1

NCI-H226 = experiment: NCI screen, growth of human tumor cells: Non-Small Cell Lung NCI-H226; details: NCI-H226 (Non-Small Cell Lung), 10^−4 molar
Procedure: as §1

OVCAR-3 = experiment: NCI screen, growth of human tumor cells: Ovarian Cancer OVCAR-3; details: OVCAR-3 (Ovarian Cancer), 10^−4 molar
Procedure: as §1

RXF-393 = experiment: NCI screen, growth of human tumor cells: Renal Cancer RXF-393; details: RXF-393 (Renal Cancer), 10^−4 molar
Procedure: as §1

HOP-92 = experiment: NCI screen, growth of human tumor cells: Non-Small Cell Lung HOP-92; details: HOP-92 (Non-Small Cell Lung), 10^−4 molar
Procedure: as §1

## O=S1(=O)OCCOS(=O)(=O)C1c1nc(Cl)c(Cl)nc1Cl [NSC 720685]
HCT-15
  percent of growth of human tumor cells: 7%
SF-539
  percent of growth of human tumor cells: 7%
NCI-H522
  percent of growth of human tumor cells: −22%
Human cancer cells
  Percentage of cancers showing negative growth cancers tested: 10^−4 M conc. = 1/4 = 25%
MOLT-4
  percent of growth of human tumor cells: 24%

## ethylene (2-methyl-2-acetyl)-ethylene-1,1-disulfonate [NSC 698121]
SF-295
  percent of growth of human tumor cells: 24%
SF-539
  percent of growth of human tumor cells: 18%
NCI-H460
  percent of growth of human tumor cells: 12%
K562; K562, 10^−4 molar
  % Growth: 54%
K562; K562, 10^−5 molar
  % Growth: 59%
K562; K562, 10^−6 molar
  % Growth: 54%
K562; K562, 10^−7 molar
  % Growth: 52%
SR; 10^−4 molar
  % Growth: 60%
SR; 10^−5 molar
  % Growth: 31%
Human cancer cells
  Percentage of cancers showing negative growth cancers tested: 10^−4 M conc. = 1/8 = 0%
MOLT-4; MOLT-4, 10^−4 molar
  % Growth: (85) %
MOLT-4; MOLT-4, 10^−5 molar
  % Growth: 46%
ACHN
  percent of growth of human tumor cells: 29%
CCRF-CEM; 10^−4 molar
  % Growth: 18%
CCRF-CEM; 10^−5 molar
  % Growth: 51%
CCRF-CEM; 10^−6 molar
  % Growth: 61%
CCRF-CEM; 10^−7 molar
  % Growth: 68%

## C[Si](C)(OCCS(=O)(=O)[O-])C(=C1S(=O)(=O)OCCOS1(=O)=O)c1cccc2ccccc12.[Na+] [MWC 95-8]
Human cancer cells
  Percentage of cancers showing negative growth cancers tested: 10^−4 M conc. = 0/1 = 0%

## CC(=O)O[C@H]1CC[C@]2(C)C3C(=O)C[C@]4(C)[C@@H](C(C)=O)CC[C@@]4(C)[C@@H]3CC[C@H]2C1(C)C (some centres unmarked) [compound 731278]
SK-MEL-5
  % Growth: −78%

## O=S1(=O)OCCOS(=O)(=O)C1=NNc1c(O)cc(S(=O)(=O)O)c2ccccc12 [NSC 686564]
NCI-H460
  percent of growth of human tumor cells: 6%
SNB-75
  percent of growth of human tumor cells: 7%
Human cancer cells
  Percentage of cancers showing negative growth cancers tested: 10^−4 M conc. = 0/5 = 0%
MOLT-4
  percent of growth of human tumor cells: 23%
ACHN
  percent of growth of human tumor cells: 26%
CCRF-CEM; 10^−4 molar
  percent of growth of human tumor cells: 14%

## O=S1(=O)OCCOS(=O)(=O)C1(Cl)Cl [NSC 648307]
RPMI-8226
  percent of growth of human tumor cells: 21%
Human cancer cells
  Percentage of cancers showing negative growth cancers tested: 10^−4 M conc. = 0/5 = 0%
UACC-62
  percent of growth of human tumor cells: 7%
CAKI-1
  percent of growth of human tumor cells: 23%
CCRF-CEM; 10^−4 molar
  percent of growth of human tumor cells: 29%
NCI-H226
  percent of growth of human tumor cells: 23%

## C[Si](C)(OCCS(=O)(=O)O)OC(=C1S(=O)(=O)OCCOS1(=O)=O)c1cccc2ccccc12.[Na+] [NSC 679049]
OVCAR-3
  percent of growth of human tumor cells: 22%
RXF-393
  percent of growth of human tumor cells: 23%

## ethylene 2-hydroxy-2-solketalyl-ethylene-1,1-disulfonate [NSC 698123]
SF-539; SF-539, 10^−4 molar
  % Growth: 42%
SF-539; SF-539, 10^−5 molar
  % Growth: 50%
K562; K562, 10^−4 molar
  % Growth: 63%
K562; K562, 10^−5 molar
  % Growth: 41%
Human cancer cells
  Percentage of cancers showing negative growth cancers tested: 10^−4 M conc. = 0/3 = 0%
CCRF-CEM; 10^−4 molar
  % Growth: 32%
CCRF-CEM; 10^−5 molar
  % Growth: 58%
CCRF-CEM; 10^−6 molar
  % Growth: 57%

## CSC(=NC(=O)c1cn([C@H]2O[C@H](COC(C)=O)[C@H]3OC(C)(C)O[C@H]32)c2ccccc12)SC [NSC 732264]
HOP-92
  percent of growth of human tumor cells: 22%
